# “Also recorded” adds a separate entry of the source. Read-outs that look alike come from different tables or passages of the source.
# Experiments:
# BCRP = target: T1, BCRP (Homo sapiens, UniProt Q9UNQ0); assay: Vesicular transport inhibition assay, BCRP (estrone-3-sulfate); details: for Maximum % inhibition: BCRP, inside-out membrane vesicles, E3S (1 μM), NIO: No inhibition observed
# T1 sequence (Q9UNQ0 1-655): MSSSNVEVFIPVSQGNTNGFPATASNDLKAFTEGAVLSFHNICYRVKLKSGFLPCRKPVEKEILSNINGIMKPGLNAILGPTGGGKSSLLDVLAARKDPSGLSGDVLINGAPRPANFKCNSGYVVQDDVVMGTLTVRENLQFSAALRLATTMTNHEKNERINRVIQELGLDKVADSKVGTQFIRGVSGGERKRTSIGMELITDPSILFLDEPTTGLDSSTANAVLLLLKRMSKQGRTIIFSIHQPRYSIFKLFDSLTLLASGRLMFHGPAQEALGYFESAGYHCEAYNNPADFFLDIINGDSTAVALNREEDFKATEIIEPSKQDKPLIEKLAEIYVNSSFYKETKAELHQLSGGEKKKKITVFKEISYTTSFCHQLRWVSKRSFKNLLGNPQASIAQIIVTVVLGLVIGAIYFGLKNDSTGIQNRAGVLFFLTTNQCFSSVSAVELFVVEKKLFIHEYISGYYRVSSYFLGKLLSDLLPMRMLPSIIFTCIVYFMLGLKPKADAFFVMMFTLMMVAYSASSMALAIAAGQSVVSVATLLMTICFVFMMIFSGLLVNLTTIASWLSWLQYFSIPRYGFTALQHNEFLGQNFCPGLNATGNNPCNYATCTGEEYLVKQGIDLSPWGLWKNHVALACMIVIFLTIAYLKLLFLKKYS
# Protocol: Vesicular transport assays were performed with inside-out membrane vesicles prepared from cells overexpressing human ABC (efflux) transporters. The transporters were expressed by SOLVO Biotechnology in mammalian (HEK293) cells. The mammalian cells were stably transfected with the ABC transporter of interest. The assays were conducted according to the actual SOLVO VT assay protocols (PR-ASY-VT-General Protocol for Vesicular Transport Inhibition Assays).
# The membrane vesicle suspension was mixed with the ice-cold transport buffer, then the probe substrate solution was added. […] (for BCRP and MDR1). […] Reactions were quenched by the addition of 200 μL of ice-cold washing buffer and immediate filtration via glass fiber filters mounted to a 96-well plate (filter plate). The filters were washed (5×200 μL of ice-cold washing buffer), dried and the amount of substrate inside the filtered vesicles was determined by liquid scintillation counting.
# Incubation with AMP provided background activity values for all data points.
# [1] = Stability in components of rat blood; type: in vitro ADME; details: 0.5 mM, 37° C., 0-120 min
# Protocol: FIG. 5A. […] Compound I-19 in components of rat blood. Red blood cells and plasma were isolated from whole blood. […] Values represent mean+SEM of n=3 separate experiments.
# FIG. 5B. Stability of Compound I-4 in components of rat blood. Red blood cells and plasma were isolated from whole blood. […] Values represent mean+SEM of n=3 separate experiments.
# Human and rat blood were centrifuged to separate out red blood cells at 1174×g for 15 min. The upper plasma level was aspirated with a micropipette and placed in a bleach solution for disposal. The RBC pellet was resuspended in sterile isotonic saline. The pellet was gently resuspended by rocking the tube. The sample was then centrifuged again to collect the RBC pellet and then resuspended and washed one more time following the same procedure. A total of three was done. Following the last wash and centrifugation, the RBCs were resuspended with PBS; and mixed by inversion. Aliquots of the resuspended and washed RBCs were then placed into 4 reaction tubes. These tubes were centrifuged to collect the RBCs. The fluid level was marked on each tube, then the supernatant was aspirated off and the cells resuspended with room temperature PBS pH 7.4 to the original mark. An aliquot of the RBC suspension was added to four sterile tubes containing PBS pH 7.4 at room temperature.
# The stability of test articles in whole blood, red blood cells only, and plasma was done to determine stability in each blood compartment. 50 μL of test article was placed in each blood matrix. The final volume was 1 mL (0.5 mM). […] LCMSMS of parent compound was used to determine stability.
# [2] = HBSS (pH 7.4) for OAT1, OAT3, OATP1B1, OATP1B3, OCT1, OCT2 uptake inhibition assay, 37° C., 6.25 μM nominal
# [3] = HBSS (pH 7.4) for OAT1, OAT3, OATP1B1, OATP1B3, OCT1, OCT2 uptake inhibition assay, 37° C., 50.00 μM nominal
# [4] = HBSS (pH 7.4) for OAT1, OAT3, OATP1B1, OATP1B3, OCT1, OCT2 uptake inhibition assay, 37° C., 100.00 μM nominal
# [5] = KH (pH 8.0) for MATE1, MATE2-K uptake inhibition assay, 37° C., 6.25 μM nominal
# [6] = KH (pH 8.0) for MATE1, MATE2-K uptake inhibition assay, 37° C., 50.00 μM nominal
# [7] = KH (pH 8.0) for MATE1, MATE2-K uptake inhibition assay, 37° C., 100.00 μM nominal
# [8] = Transport buffer (pH 7.4) for BSEP VT inhibition assay, 37° C., 6.25 μM nominal
# [9] = Transport buffer (pH 7.4) for BSEP VT inhibition assay, 37° C., 50.00 μM nominal
# [10] = Transport buffer (pH 7.4) for BSEP VT inhibition assay, 37° C., 100.00 μM nominal
# [11] = Transport buffer with sucrose (pH 7.4) for BCRP and MDR1 VT inhibition assay, 32° C., 6.25 μM nominal
# [12] = Transport buffer with sucrose (pH 7.4) for BCRP and MDR1 VT inhibition assay, 32° C., 50.00 μM nominal
# [13] = Transport buffer with sucrose (pH 7.4) for BCRP and MDR1 VT inhibition assay, 32° C., 100.00 μM nominal
# [14] = 0.14 μM nominal, follow-up assay
# [15] = 1.24 μM nominal, follow-up assay
# [16] = 11.11 μM nominal, follow-up assay
# [17] = 33.33 μM nominal, follow-up assay
# [18] = 100.00 μM nominal, follow-up assay
smiles,measurement,setting,value
"OC1(c2ccc(Cl)cc2)c2ccccc2C2=NCCN21 (stereo not drawn) [Compound A, 5-(4-chlorophenyl)-2,3-dihydroimidazo[1,2-b]isoindol-5-ol, reference compound]",Microscopy results (solubility),[2],Soluble
same,Microscopy results (solubility),"HBSS (pH 7.4) for OAT1, OAT3, OATP1B1, OATP1B3, OCT1, OCT2 uptake inhibition assay, 37° C., 30.00 μM nominal",Soluble
same,Microscopy results (solubility),"HBSS (pH 7.4) for OAT1, OAT3, OATP1B1, OATP1B3, OCT1, OCT2 uptake inhibition assay, 37° C., 40.00 μM nominal",Insoluble
same,Microscopy results (solubility),[3],Insoluble
same,Microscopy results (solubility),[4],Insoluble
same,Microscopy results (solubility),[5],Soluble
same,Microscopy results (solubility),"KH (pH 8.0) for MATE1, MATE2-K uptake inhibition assay, 37° C., 30.00 μM nominal",Soluble
same,Microscopy results (solubility),"KH (pH 8.0) for MATE1, MATE2-K uptake inhibition assay, 37° C., 40.00 μM nominal",Insoluble
same,Microscopy results (solubility),[6],Insoluble
same,Microscopy results (solubility),[7],Insoluble
same,Microscopy results (solubility),[8],Soluble
same,Microscopy results (solubility),"Transport buffer (pH 7.4) for BSEP VT inhibition assay, 37° C., 30.00 μM nominal",Soluble
same,Microscopy results (solubility),"Transport buffer (pH 7.4) for BSEP VT inhibition assay, 37° C., 40.00 μM nominal",Insoluble
same,Microscopy results (solubility),[9],Insoluble
same,Microscopy results (solubility),[10],Insoluble
same,Microscopy results (solubility),[11],Soluble
same,Microscopy results (solubility),[12],Soluble
same,Microscopy results (solubility),"Transport buffer with sucrose (pH 7.4) for BCRP and MDR1 VT inhibition assay, 32° C., 60.00 μM nominal",Insoluble
same,Microscopy results (solubility),"Transport buffer with sucrose (pH 7.4) for BCRP and MDR1 VT inhibition assay, 32° C., 70.00 μM nominal",Insoluble
same,Microscopy results (solubility),"Transport buffer with sucrose (pH 7.4) for BCRP and MDR1 VT inhibition assay, 32° C., 80.00 μM nominal",Insoluble
same,Microscopy results (solubility),"Transport buffer with sucrose (pH 7.4) for BCRP and MDR1 VT inhibition assay, 32° C., 90.00 μM nominal",Insoluble
same,Microscopy results (solubility),[13],Insoluble
same,Relative ATP-dependent transport,BCRP; 5.00 μM nominal,100.28 ± 5.84 % of control
same,Relative ATP-dependent transport,BCRP; 50.00 μM nominal,97.83 ± 3.82 % of control
same,maximum inhibition of BCRP-mediated E3S accumulation,"BCRP; 2-concentration assay, up to 100 μM (Compound A up to 50 μM)",did not inhibit; also recorded: not an in vitro inhibitor
same,Maximum % inhibition,BCRP,NIO
same,inhibition at 5 μM,BCRP; human,0%
same,inhibition at 50 μM,BCRP; human,2%
COCCOC1(c2ccc(Cl)cc2)c2ccccc2C2=NCCN21 (stereo not drawn) [Compound I-4],% parent compound remaining,[1]; rat plasma,no significant change in the amount of parent compound
same,% parent compound remaining,[1]; rat red blood cells,small time-dependent decrease in the amount of parent compound remaining
same,% parent compound remaining,[1]; rat whole blood,small time-dependent decrease in the amount of parent compound remaining
Clc1ccc(C2(OCC3OCCO3)c3ccccc3C3=NCCN32)cc1 (stereo not drawn) [Compound I-19],Microscopy results (solubility),[2],Soluble
same,Microscopy results (solubility),[3],Soluble
same,Microscopy results (solubility),[4],Soluble
same,Kinetic solubility,HBSS (pH 7.4) uptake assay buffer,≥ 100 µM
same,Microscopy results (solubility),[5],Soluble
same,Microscopy results (solubility),[6],Soluble
same,Microscopy results (solubility),[7],Soluble
same,Kinetic solubility,KH (pH 8.0) uptake assay buffer,≥ 100 µM
same,Microscopy results (solubility),[8],Soluble
same,Microscopy results (solubility),[9],Soluble
same,Microscopy results (solubility),[10],Soluble
same,Microscopy results (solubility),[11],Soluble
same,Microscopy results (solubility),[12],Soluble
same,Microscopy results (solubility),[13],Soluble
same,Microscopy results (solubility),pH 7.4,Soluble
same,Microscopy results (solubility),pH 8,Soluble
same,Kinetic solubility,transport buffer for BSEP (pH 7.4),≥ 100 µM
same,Kinetic solubility,"transport buffer with sucrose for BCRP and MDR1 (pH 7.4, 32° C.)",≥ 100 µM
same,ATP-dependent transport,BCRP; [14],"13,445.33 ± 1,138.41 cpm"
same,Relative ATP-dependent transport,BCRP; [14],98.49 ± 11.79 % of control
same,Relative inhibition,BCRP; [14],2%
same,ATP-dependent transport,BCRP; [15],"12,617.00 ± 500.27 cpm"
same,Relative ATP-dependent transport,BCRP; [15],92.42 ± 8.64 % of control
same,Relative inhibition,BCRP; [15],8%
same,ATP-dependent transport,BCRP; 10.00 μM nominal,"15,363.00 ± 602.94^ cpm"
same,Relative ATP-dependent transport,BCRP; 10.00 μM nominal,94.72 ± 7.53 % of control
same,Relative inhibition,BCRP; 10.00 μM nominal,5%
same,ATP-dependent transport,BCRP; [16],"12,797.67 ± 194.88 cpm"
same,Relative ATP-dependent transport,BCRP; [16],93.75 ± 8.06 % of control
same,Relative inhibition,BCRP; [16],6%
same,ATP-dependent transport,BCRP; [17],"10,739.00 ± 289.94 cpm"
same,Relative ATP-dependent transport,BCRP; [17],78.67 ± 6.99 % of control
same,Relative inhibition,BCRP; [17],21%
same,ATP-dependent transport,BCRP; 100.00 μM nominal,"7,418.33 ± 222.69 cpm"
same,Relative ATP-dependent transport,BCRP; 100.00 μM nominal,45.74 ± 3.45 % of control
same,Relative inhibition,BCRP; 100.00 μM nominal,54%
same,ATP-dependent transport,BCRP; [18],"7,718.00 ± 183.19 cpm"
same,Relative ATP-dependent transport,BCRP; [18],56.54 ± 4.97 % of control
same,Relative inhibition,BCRP; [18],43%
same,Maximum % inhibition,BCRP,43%
same,maximum inhibition of BCRP-mediated E3S accumulation,"BCRP; follow-up assay, seven concentrations",43%
same,% parent compound remaining,[1]; rat plasma,small time-dependent decrease in the amount of parent compound present
same,% parent compound remaining,[1]; rat red blood cells,small time-dependent decrease in the amount of parent compound present
same,% parent compound remaining,[1]; rat whole blood,small time-dependent decrease in the amount of parent compound present
